# Measurements taken from publication PMC11264232, “Are the metal identity and stoichiometry of metal complexes important for colchicine site binding and inhibition of tubulin polymerization?” (Dalton Transactions (Cambridge, England : 2003), 2024).
# Tests used:
# NCI-H322M = assay: NCI-60 five-dose screen; type: cell-based, human; conditions: Non-Small Cell Lung Cancer
# Protocol: (§3) The NCI-60 SRB assay was performed as described previously.[76] GI50 values (the concentration of the metal complex causing 50% growth inhibition), TGI value (the concentration of the complex causing 0% cell growth), and LC50 (the concentration of the complex causing 50% cell death) were interpolated from dose–response curves that were plots of percentage cell growth versus concentration of test compounds.
# [1] = Reduction by glutathione (GSH), UV–vis; type: physicochemical; conditions: pH 7.4, glove box
# Source text: The reduction of complexes 1, 2, 4 and 5 by glutathione (GSH), one of the major cellular reductants, was investigated at pH 7.4 by recording UV–vis spectra in a glove box.
# HCT-116 = assay: NCI-60 five-dose screen; type: cell-based, human; conditions: Colon cancer
# Protocol: as §3
# CCRF-CEM = assay: NCI-60 five-dose screen; type: cell-based, human; conditions: Leukemia
# Protocol: as §3
# TK-10 = assay: NCI-60 five-dose screen; type: cell-based, human; conditions: Renal cancer
# Source text: (§4) GI50 values (the concentration of the metal complex causing 50% growth inhibition), TGI value (the concentration of the complex causing 0% cell growth), and LC50 (the concentration of the complex causing 50% cell death) were interpolated from dose–response curves that were plots of percentage cell growth versus concentration of test compounds.
# RPMI-8226 = assay: NCI-60 five-dose screen; type: cell-based, human; conditions: Leukemia
# Protocol: as §3
# PC-3 = assay: NCI-60 five-dose screen; type: cell-based, human; conditions: Prostate cancer
# Source text: as §4
# SNB-19 = assay: NCI-60 five-dose screen; type: cell-based, human; conditions: CNS cancer
# Source text: as §4
# HL-60(TB) = assay: NCI-60 five-dose screen; type: cell-based, human; conditions: Leukemia
# OVCAR-3 = assay: NCI-60 five-dose screen; type: cell-based, human; conditions: Ovarian cancer
# Protocol: as §3
# HOP-92 = assay: NCI-60 five-dose screen; type: cell-based, human; conditions: Non-Small Cell Lung Cancer
# Protocol: as §3
# NCI-H522 = assay: NCI-60 five-dose screen; type: cell-based, human; conditions: Non-Small Cell Lung Cancer
# Protocol: as §3
# NCI-H23 = assay: NCI-60 five-dose screen; type: cell-based, human; conditions: Non-Small Cell Lung Cancer
# Protocol: as §3
# HS 578T = assay: NCI-60 five-dose screen; type: cell-based, human; conditions: Breast cancer
# Protocol: as §3
# MDA-MB-468 = assay: NCI-60 five-dose screen; type: cell-based, human; conditions: Breast cancer
# Protocol: as §3
# IGROV1 = assay: NCI-60 five-dose screen; type: cell-based, human; conditions: Ovarian cancer
# Protocol: as §3
# HCC-2998 = assay: NCI-60 five-dose screen; type: cell-based, human; conditions: Colon cancer
# Protocol: as §3
# OVCAR-5 = assay: NCI-60 five-dose screen; type: cell-based, human; conditions: Ovarian cancer
# Protocol: as §3
# ACHN = assay: NCI-60 five-dose screen; type: cell-based, human; conditions: Renal cancer
# Protocol: as §3
# U251 = assay: NCI-60 five-dose screen; type: cell-based, human; conditions: CNS cancer
# Protocol: as §3
# MDA-MB-231/ATCC = assay: NCI-60 five-dose screen; type: cell-based, human; conditions: Breast cancer
# Protocol: as §3
# SF-539 = assay: NCI-60 five-dose screen; type: cell-based, human; conditions: CNS cancer
# Source text: as §4
# DU-145 = assay: NCI-60 five-dose screen; type: cell-based, human; conditions: Prostate cancer
# Source text: as §4
# T-47D = assay: NCI-60 five-dose screen; type: cell-based, human; conditions: Breast cancer
# Protocol: as §3
# RXF 393 = assay: NCI-60 five-dose screen; type: cell-based, human; conditions: Renal cancer
# Protocol: as §3
# KM12 = assay: NCI-60 five-dose screen; type: cell-based, human; conditions: Colon cancer
# Protocol: as §3
# EKVX = assay: NCI-60 five-dose screen; type: cell-based, human; conditions: Non-Small Cell Lung Cancer
# Protocol: as §3
# MDA-MB-435 = conditions: Melanoma
# Source text: (§1) The proligands HL^1–HL^3 and their corresponding metal complexes 1–8 prepared in this study were subjected to evaluation of their anticancer potential, including selectivity towards specific types of cancer: leukemia, non-small cell lung (NSCLC), colon, central nervous system (CNS), melanoma, ovarian, renal, prostate and breast cancers, by the National Cancer Institute's Developmental Therapeutics Program. This evaluation involved the utilization of the NCI 60 human tumor cell line panel.[57] […] The GI50 data in μM are collected in Table 5.
# (§2) The NCI-60 SRB assay was performed as described previously.[76]
# SK-MEL-2 = conditions: Melanoma
# Source text: as §1, §2
# UACC-257 = conditions: Melanoma
# Source text: as §1, §2
# UACC-62 = conditions: Melanoma
# Source text: as §1, §2
# SK-MEL-28 = conditions: Melanoma
# Source text: as §1, §2
# SK-MEL-5 = conditions: Melanoma
# Source text: as §1, §2
# LOX IMVI = conditions: Melanoma
# Source text: as §1, §2
# MALME-3M = conditions: Melanoma
# Source text: as §1, §2
# M14 = conditions: Melanoma
# Source text: as §1, §2
# NCI-H226 = assay: NCI-60 five-dose screen; type: cell-based, human; conditions: Non-Small Cell Lung Cancer
# Protocol: as §3
# SN12C = assay: NCI-60 five-dose screen; type: cell-based, human; conditions: Renal cancer
# Protocol: as §3
# 786-0 = assay: NCI-60 five-dose screen; type: cell-based, human; conditions: Renal cancer
# Protocol: as §3
# SK-OV-3 = assay: NCI-60 five-dose screen; type: cell-based, human; conditions: Ovarian cancer
# Protocol: as §3
smiles,measurement,setting,value
"CC(=NN=C([S-])Nc1cc(C)c(O)c(C)c1)c1cccc(CN2CCOCC2)n1.CC(=NN=C([S-])Nc1cc(C)c(O)c(C)c1)c1cccc(CN2CCOCC2)n1.O=[N+]([O-])[O-].[Fe+3] [Complex 4, [Fe^III(L^2)2]NO3]",GI50,NCI-H322M,3.26 µM
same,reduction by glutathione (GSH),[1],reduction by GSH
same,GI50,HCT-116,2300 nM
same,GI50,CCRF-CEM,2220 nM
same,GI50,TK-10,4.13 µM
same,GI50,RPMI-8226,1810 nM
same,GI50,PC-3,2430 nM
same,GI50,SNB-19,2760 nM
same,GI50,HL-60(TB),1410 nM
same,GI50,OVCAR-3,1990 nM
same,GI50,HOP-92,2540 nM
same,GI50,NCI-H522,2070 nM
same,GI50,NCI-H23,2230 nM
same,GI50,HS 578T,1960 nM
same,GI50,MDA-MB-468,1560 nM
same,GI50,IGROV1,3.27 µM
same,GI50,HCC-2998,2730 nM
same,GI50,OVCAR-5,2740 nM
same,GI50,ACHN,3.1 µM
same,GI50,U251,1970 nM
same,GI50,MDA-MB-231/ATCC,2440 nM
same,GI50,SF-539,1960 nM
same,GI50,DU-145,6.29 µM
same,GI50,T-47D,1900 nM
same,GI50,RXF 393,1950 nM
same,GI50,KM12,2340 nM
same,GI50,EKVX,2250 nM
same,GI50,MDA-MB-435,2310 nM
same,GI50,SK-MEL-2,1670 nM
same,GI50,UACC-257,4.34 µM
same,GI50,UACC-62,1860 nM
same,GI50,SK-MEL-28,2380 nM
same,GI50,SK-MEL-5,1100 nM
same,GI50,LOX IMVI,2340 nM
same,GI50,MALME-3M,1930 nM
same,GI50,M14,2370 nM
same,GI50,NCI-H226,2540 nM
same,GI50,SN12C,2530 nM
same,GI50,786-0,9.56 µM
same,GI50,SK-OV-3,2700 nM
